Earlier results in PMC12749109 (Nature Communications, 2025).
Entries after “also recorded” stand apart in the source; their conditions may differ.

Experiments:
TNBS-induced colitis = settings: rat acute TNBS colitis; cited from earlier work
GALR1 = settings: cited from earlier work
GALR2 = settings: cited from earlier work
GALR3 = settings: cited from earlier work

## galanin: biologically active neuropeptide of 29/30 amino acids, cited literature
TNBS-induced colitis
  severity of colonic damage and inflammatory responses: decreases inflammatory responses; also recorded: reduce the severity of colonic damage and inflammatory responses
GALR1
  affinity: high affinity
GALR2
  affinity: high affinity
GALR3
  affinity: lower affinity
